Results reported in patent US20040121307A1, “Early detection of cellular differentiation using optophoresis” (Genoptix, Inc, priority 2002, published 2004).

Legend:
[1] = test system: activated caspases in U937 cells; test: Homogeneous Caspases Assay, Fluorimetric; assay type: cell-based; conditions: 4 μg/ml camptothecin, 300 cells/well
Excerpt: Another assay that provides for even earlier detection of apoptotic events are assays that detect caspase activation. For example, the Homogeneous Caspases Assay, Fluorimetric (available from Roche, catalog no. 3005372), is able to detect caspase activation. […] The kit uses the substrate DEVD-Rhodamine 110 which is cleaved by activated caspases. When DEVD-Rhodamine 110 is cleaved, the released Rhodamine-110 molecule fluoresces upon excitation. By comparing the fluorescence from an apoptotic sample and an uninduced control, the increase in caspase activity can be quantified. While caspase assays do have the ability to detect relatively early apoptotic events, the assays require fluorometric enzyme substrates. Yet another experiment using U937 cells treated with 4 μg/ml camptothecin was carried out. In this experiment, the cells were subject to analysis using a caspase assay (Homogeneous Caspases Assay, Fluorimetric-available from Roche, catalog no. 3005372). The caspase assay is a fluorometric assay carried out in 96-well plates. […] Upon cleavage of the substrate by activated caspases, fluorescence of the released Rhodamine 110 is measured. […] FIG. 102 illustrates a graph of the relative fluorescence units (RFU) as a function of incubation times (hours) for the control (blank) as well as the camptothecin-treated cells.

[2] = test system: CEM/C2 cell line; conditions: cell lines obtained from ATCC; cited from earlier work
[3] = test system: U937 cells; test: Experiment 4: effect of camptothecin, escape velocity; assay type: cell-based; conditions: for escape velocity, Average: 0.04 μg/ml camptothecin
Experimental: The objective of this experiment is to test the effects of camptothecin on the escape velocities of U937 cells. Camptothecin inhibits DNA topoisomerase I and induces apoptosis. A control and three concentrations of camptothecin were tested: […]. After adding the camptothecin, the flasks are incubated at 37° C. 5% CO2.
At the timepoints of 4 hours and 6 hours, 200 μl of cells are spun for 5 minutes at 5000 rpm. The cells are then resuspended in […] PBS/1% BSA and […] trypan blue.
Optophoretic techniques have been investigated for their potential to detect the early onset of apoptosis in mammalian cells. U.S. patent application Ser. No. 10,240,611, for example, discloses multiple experiments in which U937 cells were treated with camptothecin and subsequently monitored Optophoretically using measured escape velocities. In one experiment, the escape velocity of the camptothecin-treated cells were measured at 4 and 6 hours after treatment. Noticeable changes in escape velocity were seen as early as 4 hours after treatment (see, e.g., FIG. 34). In that experiment, U937 cells were treated with 4 μg/ml of camptothecin and resuspended in PBS/1% BSA. Escape velocity measurements were taken after 4 and 6 hours. Table 18, reproduced below, includes the results of the escape velocity measurements for the test cells as well as the controls.

[4] = test system: U937 cells; test: ApoAlert Annexin V assay (FACS); assay type: cell-based; conditions: 4 μg/ml camptothecin
Experimental: Still other assays provide earlier indications of the onset of apoptosis. For example, commercially available assays, such as the ApoAlert Annexin V assay (available from CLONETECH) are able to detect changes in the plasma membrane by using a FITC conjugate of annexin V. The ApoAlert Annexin V assay is based on the observation that within about 6-10 hours after the onset of apoptosis, most cell types translocate phosphatidylserine (PS) from the inner face of the plasma membrane to the exterior of the cell surface. Once the PS is exposed on the exterior of the cell surface, the presence of PS can be detected using a FITC conjugate of annexin V. Fluorescence microscopy and flow cytometry can then be used to detect the binding of the FITC conjugate to the […]. While this assay does provide for relatively early detection of apoptotic events, the assay requires labeled annexin V markers as well as subsequent analysis by fluorescent microscopy or flow cytometry.
Another experiment using U937 cells treated with 4 μg/ml camptothecin was also carried out. In this experiment, however, the cells were subject to analysis using an annexin V assay. The assay was performed using the ApoAlert Annexin V Apoptosis Kit (available from Clonetech, catalog no. K2025-1). […] Significant annexin V binding is seen later in the 3 and 4 hour time points. […]

[5] = test system: K562 Cells; test: Escape velocities of different cell types (1064 system, CYTOP coated coverslips); assay type: cell-based; conditions: 26 Hr. Taxol Treatment
Excerpt: Certain of the data reported herein were generated with the following setup. Optical gradient fields were generated using a Michelson interferometer and either a 150 mW, 812 nm laser (812 system) or a 2.5 W, 1064 nm laser (1064 system). The 812 system used a 100× (1.25 NA) oil immersion lens to focus the fringe pattern and to visualize the sample. The 1064 system used a 20× objective to focus the fringes and a 60× objective to visualize the sample. In general the sample cell was a coated microscope slide and/or coverslip that was sealed with Vaseline. Coverslip spacers controlled the height of the cell at approximately 150 micrometers.
Escape velocities were measured using a gradient field generated by the 1064 system on CYTOP coated coverslips.

[6] = test system: K562 Cells; test: Experiment 7: time and concentration dependence of paciltaxel, escape velocity; assay type: cell-based; design: escape velocity, Ave.: unit not given here
Experimental: In this experiment, the effect of time and concentration of paciltaxel was tested using K562 cells. Paciltaxel is a chemotherapeutic agent whose mechanism of action is the […] and the subsequent disruption of the cytoskeleton in cells. The timepoints tested were 4 hours, 23 hours, 30 hours and 47 hours. The concentrations of paciltaxel used in the experiment were 10 nM, 1 nM, 100 pM, and 10 pM. At each timepoint, 300 μl of cells were removed from each sample and centrifuged for 5 minutes at 5,000 rpm. The cells were then resuspended in PBS/1% BSA and trypan blue.

CC[C@@]1(O)C(=O)OCc2c1cc1n(c2=O)Cc2cc3ccccc3nc2-1 [camptothecin]
time after administration at which caspase activity is detected [1]: > 4 h | fold less sensitive than parental CCRF-CEM [2]: 970 fold | shift in escape velocity over time ([3]; 40 ng/ml camptothecin, 4 and 6 hours (FIG. 34)): shift to lower escape velocities over time | escape velocity, Average ([3]; 4 hours): 10.16 μm/sec | escape velocity, Average ([3]; 6 hours): 9.52 μm/sec | time at which the annexin V assay begins to detect the onset of apoptosis [4]: 2 h

CC(=O)O[C@H]1C(=O)[C@@]2(C)[C@H]([C@H](OC(=O)c3ccccc3)[C@]3(O)C[C@H](OC(=O)[C@H](O)[C@@H](NC(=O)c4ccccc4)c4ccccc4)C(C)=C1C3(C)C)[C@]1(OC(C)=O)CO[C@@H]1C[C@@H]2O [paciltaxel]
Escape Velocity [5]: 8.2 +/− 0.4 um/sec. | escape velocity, Ave. ([6]; 10 pM paciltaxel, 4 Hours): 15.7 | escape velocity, Ave. ([6]; 10 pM paciltaxel, 23 Hours): 15.7 | escape velocity, Ave. ([6]; 10 pM paciltaxel, 30 Hours): 16.0 | escape velocity, Ave. ([6]; 10 pM paciltaxel, 47 Hours): 16.2 | optophoretic effect on cells ([6]; 10 pM to 10 nM, 4 to 47 hours): both a time and dose dependent optophoretic effect | escape velocity, Ave. ([6]; 100 pM paciltaxel, 4 Hours): 15.9 | escape velocity, Ave. ([6]; 100 pM paciltaxel, 23 Hours): 17.1 | escape velocity, Ave. ([6]; 100 pM paciltaxel, 30 Hours): 17.6 | escape velocity, Ave. ([6]; 100 pM paciltaxel, 47 Hours): 17.0 | escape velocity, Ave. ([6]; 1 nM paciltaxel, 4 Hours): 15.6 | escape velocity, Ave. ([6]; 1 nM paciltaxel, 23 Hours): 16.9 | escape velocity, Ave. ([6]; 1 nM paciltaxel, 30 Hours): 16.9 | escape velocity, Ave. ([6]; 1 nM paciltaxel, 47 Hours): 16.7 | escape velocity, Ave. ([6]; 10 nM paciltaxel, 4 Hours): 15.3 | escape velocity, Ave. ([6]; 10 nM paciltaxel, 23 Hours): 16.9 | escape velocity, Ave. ([6]; 10 nM paciltaxel, 30 Hours): 17.4 | escape velocity, Ave. ([6]; 10 nM paciltaxel, 47 Hours): 17.1
